Data as given in ChEMBL document CHEMBL3885881, “DrugMatrix”.

Species: Rattus norvegicus
Experiment: DrugMatrix - Regimen: Daily Repeat
Format: toxicity, organism-based, Sprague-Dawley
Set-up: regimen Daily Repeat, gender Male, age 6-8 weeks
Conditions: in vivo, po, route oral GAVAGE, vehicle .5 % CMC; for ABSOLUTE BASOPHIL / ABSOLUTE EOSINOPHIL / ABSOLUTE LYMPHOCYTE / ABSOLUTE MONOCYTE / ABSOLUTE SEGMENTED NEUTROPHIL / BASOPHIL / EOSINOPHIL / ERYTHROCYTE COUNT / HEMATOCRIT / HEMOGLOBIN / LEUKOCYTE COUNT / LYMPHOCYTE / MEAN CORPUSCULAR HEMOGLOBIN / MEAN CORPUSCULAR HEMOGLOBIN CONCENTRATION / MONOCYTE / NEUTROPHIL / NUCLEATED RED BLOOD CELLS / PLATELET COUNT: tissue Blood; for ALANINE AMINOTRANSFERASE / ALBUMIN / ALKALINE PHOSPHATASE / ASPARTATE AMINOTRANSFERASE / BLOOD UREA NITROGEN / CARBON DIOXIDE / CHLORIDE / CHOLESTEROL / CREATININE / GLUCOSE / LACTATE DEHYDROGENASE / LIPASE / PHOSPHORUS / POTASSIUM / SODIUM / TOTAL BILIRUBIN / TOTAL PROTEIN / URIC ACID: tissue Plasma
[1] = 50 mg/kg, 72 h, dose level Low, time 3 day
[2] = 50 mg/kg, 120 h, dose level Low, time 5 day
[3] = 600 mg/kg, 72 h, dose level High, time 3 day
[4] = 600 mg/kg, 120 h, dose level High, time 5 day

Structure (SMILES): N[C@@H]1[C@H]2CN(c3nc4c(cc3F)c(=O)c(C(=O)O)cn4-c3ccc(F)cc3F)C[C@@H]12 [TROVAFLOXACIN]
- ABSOLUTE BASOPHIL [1]: 0 CELLS/uL
- ABSOLUTE EOSINOPHIL [1]: 332.33 CELLS/uL
- ABSOLUTE LYMPHOCYTE [1]: 13247 CELLS/uL
- ABSOLUTE MONOCYTE [1]: 338.33 CELLS/uL
- ABSOLUTE SEGMENTED NEUTROPHIL [1]: 2282.33 CELLS/uL
- BASOPHIL [1]: 0%
- EOSINOPHIL [1]: 2%
- ERYTHROCYTE COUNT [1]: 5.64 x10E6/uL
- HEMATOCRIT [1]: 34.17%
- HEMOGLOBIN [1]: 12.5 G/DL
- LEUKOCYTE COUNT [1]: 16.2 x10E3/uL
- LYMPHOCYTE [1]: 82%
- MEAN CORPUSCULAR HEMOGLOBIN [1]: 22.13 pg
- MEAN CORPUSCULAR HEMOGLOBIN CONCENTRATION [1]: 36.57 G/DL
- MONOCYTE [1]: 2%
- NEUTROPHIL [1]: 14%
- NUCLEATED RED BLOOD CELLS [1]: 0 /100WBC
- PLATELET COUNT [1]: 1160 x10E3/uL
- ALANINE AMINOTRANSFERASE [1]: 50.67 u/L
- ALBUMIN [1]: 4.23 G/DL
- ALKALINE PHOSPHATASE [1]: 421 u/L
- ASPARTATE AMINOTRANSFERASE [1]: 75.33 u/L
- BLOOD UREA NITROGEN [1]: 16 mg/dL
- CARBON DIOXIDE [1]: 27 mmol/L
- CHLORIDE [1]: 102.33 MEQ/L
- CHOLESTEROL [1]: 86.33 mg/dL
- CREATININE [1]: 0.17 mg/dL
- GLUCOSE [1]: 151 mg/dL
- LACTATE DEHYDROGENASE [1]: 114.67 u/L
- LIPASE [1]: 9.33 u/L
- PHOSPHORUS [1]: 13.33 mg/dL
- POTASSIUM [1]: 6.87 MEQ/L
- SODIUM [1]: 148.2 MEQ/L
- TOTAL BILIRUBIN [1]: 0.17 mg/dL
- TOTAL PROTEIN [1]: 6.3 G/DL
- URIC ACID [1]: 1.47 mg/dL
- ABSOLUTE BASOPHIL [2]: 0 CELLS/uL
- ABSOLUTE EOSINOPHIL [2]: 225.67 CELLS/uL
- ABSOLUTE LYMPHOCYTE [2]: 14834.67 CELLS/uL
- ABSOLUTE MONOCYTE [2]: 380.67 CELLS/uL
- ABSOLUTE SEGMENTED NEUTROPHIL [2]: 2392.33 CELLS/uL
- BASOPHIL [2]: 0%
- EOSINOPHIL [2]: 1.33%
- ERYTHROCYTE COUNT [2]: 5.73 x10E6/uL
- HEMATOCRIT [2]: 34.4%
- HEMOGLOBIN [2]: 12.63 G/DL
- LEUKOCYTE COUNT [2]: 17.83 x10E3/uL
- LYMPHOCYTE [2]: 82.67%
- MEAN CORPUSCULAR HEMOGLOBIN [2]: 22.13 pg
- MEAN CORPUSCULAR HEMOGLOBIN CONCENTRATION [2]: 36.73 G/DL
- MONOCYTE [2]: 2%
- NEUTROPHIL [2]: 14%
- NUCLEATED RED BLOOD CELLS [2]: 0 /100WBC
- PLATELET COUNT [2]: 1198 x10E3/uL
- ALANINE AMINOTRANSFERASE [2]: 44.67 u/L
- ALBUMIN [2]: 4 G/DL
- ALKALINE PHOSPHATASE [2]: 375.33 u/L
- ASPARTATE AMINOTRANSFERASE [2]: 95 u/L
- BLOOD UREA NITROGEN [2]: 15.33 mg/dL
- CARBON DIOXIDE [2]: 27.67 mmol/L
- CHLORIDE [2]: 100.33 MEQ/L
- CHOLESTEROL [2]: 77.67 mg/dL
- CREATININE [2]: 0.14 mg/dL
- GLUCOSE [2]: 165.33 mg/dL
- LACTATE DEHYDROGENASE [2]: 482.33 u/L
- LIPASE [2]: 9 u/L
- PHOSPHORUS [2]: 13.63 mg/dL
- POTASSIUM [2]: 6.38 MEQ/L
- SODIUM [2]: 144.47 MEQ/L
- TOTAL BILIRUBIN [2]: 0.13 mg/dL
- TOTAL PROTEIN [2]: 5.9 G/DL
- URIC ACID [2]: 2.13 mg/dL
- ABSOLUTE BASOPHIL [3]: 0 CELLS/uL
- ABSOLUTE EOSINOPHIL [3]: 206 CELLS/uL
- ABSOLUTE LYMPHOCYTE [3]: 11774.33 CELLS/uL
- ABSOLUTE MONOCYTE [3]: 306 CELLS/uL
- ABSOLUTE SEGMENTED NEUTROPHIL [3]: 3013.67 CELLS/uL
- BASOPHIL [3]: 0%
- EOSINOPHIL [3]: 1.33%
- ERYTHROCYTE COUNT [3]: 5.75 x10E6/uL
- HEMATOCRIT [3]: 34.53%
- HEMOGLOBIN [3]: 12.7 G/DL
- LEUKOCYTE COUNT [3]: 15.3 x10E3/uL
- LYMPHOCYTE [3]: 78.33%
- MEAN CORPUSCULAR HEMOGLOBIN [3]: 22.13 pg
- MEAN CORPUSCULAR HEMOGLOBIN CONCENTRATION [3]: 36.77 G/DL
- MONOCYTE [3]: 2%
- NEUTROPHIL [3]: 18.33%
- NUCLEATED RED BLOOD CELLS [3]: 0 /100WBC
- PLATELET COUNT [3]: 1258 x10E3/uL
- ALANINE AMINOTRANSFERASE [3]: 35.33 u/L
- ALBUMIN [3]: 4.27 G/DL
- ALKALINE PHOSPHATASE [3]: 290.67 u/L
- ASPARTATE AMINOTRANSFERASE [3]: 69.67 u/L
- BLOOD UREA NITROGEN [3]: 19.67 mg/dL
- CARBON DIOXIDE [3]: 25.33 mmol/L
- CHLORIDE [3]: 106.33 MEQ/L
- CHOLESTEROL [3]: 81.33 mg/dL
- CREATININE [3]: 0.16 mg/dL
- GLUCOSE [3]: 145 mg/dL
- LACTATE DEHYDROGENASE [3]: 197 u/L
- LIPASE [3]: 9.33 u/L
- PHOSPHORUS [3]: 13.8 mg/dL
- POTASSIUM [3]: 6.71 MEQ/L
- SODIUM [3]: 151.87 MEQ/L
- TOTAL BILIRUBIN [3]: 0.17 mg/dL
- TOTAL PROTEIN [3]: 6.43 G/DL
- URIC ACID [3]: 1.63 mg/dL
- ABSOLUTE BASOPHIL [4]: 0 CELLS/uL
- ABSOLUTE EOSINOPHIL [4]: 229.8 CELLS/uL
- ABSOLUTE LYMPHOCYTE [4]: 12826.8 CELLS/uL
- ABSOLUTE MONOCYTE [4]: 343 CELLS/uL
- ABSOLUTE SEGMENTED NEUTROPHIL [4]: 1100.4 CELLS/uL
- BASOPHIL [4]: 0%
- EOSINOPHIL [4]: 1.6%
- ERYTHROCYTE COUNT [4]: 5.94 x10E6/uL
- HEMATOCRIT [4]: 35.56%
- HEMOGLOBIN [4]: 12.98 G/DL
- LEUKOCYTE COUNT [4]: 14.5 x10E3/uL
- LYMPHOCYTE [4]: 88.4%
- MEAN CORPUSCULAR HEMOGLOBIN [4]: 21.88 pg
- MEAN CORPUSCULAR HEMOGLOBIN CONCENTRATION [4]: 36.5 G/DL
- MONOCYTE [4]: 2.4%
- NEUTROPHIL [4]: 7.6%
- NUCLEATED RED BLOOD CELLS [4]: 0 /100WBC
- PLATELET COUNT [4]: 1294.2 x10E3/uL
- ALANINE AMINOTRANSFERASE [4]: 42 u/L
- ALBUMIN [4]: 4.16 G/DL
- ALKALINE PHOSPHATASE [4]: 348.4 u/L
- ASPARTATE AMINOTRANSFERASE [4]: 67.4 u/L
- BLOOD UREA NITROGEN [4]: 17.8 mg/dL
- CARBON DIOXIDE [4]: 29.6 mmol/L
- CHLORIDE [4]: 102 MEQ/L
- CHOLESTEROL [4]: 83 mg/dL
- CREATININE [4]: 0.15 mg/dL
- GLUCOSE [4]: 156 mg/dL
- LACTATE DEHYDROGENASE [4]: 129.8 u/L
- LIPASE [4]: 9.8 u/L
- PHOSPHORUS [4]: 14.22 mg/dL
- POTASSIUM [4]: 6.78 MEQ/L
- SODIUM [4]: 146.28 MEQ/L
- TOTAL BILIRUBIN [4]: 0.14 mg/dL
- TOTAL PROTEIN [4]: 6 G/DL
- URIC ACID [4]: 1.88 mg/dL
